Measured values as given in ChEMBL document CHEMBL5214884, “Recent research progress of Uncaria spp. based on alkaloids: phytochemistry, pharmacology and structural chemistry” (Eur J Med Chem, 2021).
pEC50, pIC50: −log10 of the molar value. Values belong to the molecule of their own block, whether it stands above or below them.

What was measured:
RAW264.7 = assay: Inhibition of LPS-induced NO release in mouse RAW264.7 cells preincubated for 2 hrs followed by LPS addition measured after 24 hrs; assay type: functional, cell-based
Acetylcholinesterase [1] = molecular target: T1, Acetylcholinesterase (Homo sapiens, UniProt P22303); assay: Inhibition of AChE (unknown origin) incubated for 20 mins by Ellman's method
Mus musculus [2] = species on record: Mus musculus; assay: Antiinflammatory activity against Balb/c mouse serum assessed as inhibition of IL-17 release measured after 2 hrs by cytokine Elisa multiplex Q-plex system method relative to control; assay type: functional; design: scale not given: the % may be the effect or the level left
Mus musculus [3] = species on record: Mus musculus; assay: Antiinflammatory activity against Balb/c mouse serum assessed as inhibition of TNF-alpha release measured after 2 hrs by cytokine Elisa multiplex Q-plex system method relative to control; assay type: functional; design: scale not given: the % may be the effect or the level left
Mus musculus [4] = species on record: Mus musculus; assay: Antiinflammatory activity against Balb/c mouse serum assessed as reduction of IL-4 release measured after 2 hrs by cytokine Elisa multiplex Q-plex system method relative to control; assay type: functional; design: scale not given: the % may be the effect or the level left
Mus musculus [5] = species on record: Mus musculus; assay: Antiinflammatory activity against Balb/c mouse serum assessed as inhibition of IL-1alpha release measured after 2 hrs by cytokine Elisa multiplex Q-plex system method relative to control; assay type: functional; design: scale not given: the % may be the effect or the level left
Mus musculus [6] = species on record: Mus musculus; assay: Antiinflammatory activity against Balb/c mouse serum assessed as inhibition of IL-1beta release measured after 2 hrs by cytokine Elisa multiplex Q-plex system method relative to control; assay type: functional; design: scale not given: the % may be the effect or the level left
[7] = Inhibition of alpha glucosidase (unknown origin) using p-nitrophenyl alpha-D-glucoside as substrate preincubated for 60 mins followed by substrate addition measured after 30 mins by spectrophotometric analysis; design: species or system Homo sapiens
[8] = Inhibition of LPS-induced NO release in mouse N9 microglial cells measured after 48 hrs by Griess reaction assay; assay type: functional, cell-based; conditions: N9, 48 h
[9] = Inhibition of alpha glucosidase (unknown origin) using p-nitrophenyl-a-D-glucopyranoside as substrate incubated for 20 mins by UV based microplate reading method; design: species or system Homo sapiens
[10] = Inhibition of human carboxylesterase using 4-benzoyl-N-butyl-1,8-naphthalimide as substrate by fluorescence based assay
PC-12 [11] = assay: Neuroprotective activity against mNGF-differentiated rat PC-12 cells assessed as inhibition of caspase 3; assay type: functional, cell-based
PC-12 [12] = assay: Neuroprotective activity against mNGF-differentiated rat PC-12 cells assessed as inhibition of caspase 9; assay type: functional, cell-based
[13] = molecular target: T2, Melatonin receptor type 1A (Homo sapiens, UniProt P48039); assay: Agonist activity at human MT1R stably expressed in HEK293 cells at 1 mM by FlexStation3 Bench-top MultiMode Microplate Reader relative to control; assay type: functional, cell-based; conditions: filed as agonist
[14] = molecular target: T3, Melatonin receptor type 1B (Homo sapiens) (UniProt P49286); assay: Agonist activity at human MT2R stably expressed in HEK293 cells at 1 mM by FlexStation3 Bench-top MultiMode Microplate Reader relative to control; assay type: functional, cell-based; conditions: filed as agonist
T3 sequence (whole entry): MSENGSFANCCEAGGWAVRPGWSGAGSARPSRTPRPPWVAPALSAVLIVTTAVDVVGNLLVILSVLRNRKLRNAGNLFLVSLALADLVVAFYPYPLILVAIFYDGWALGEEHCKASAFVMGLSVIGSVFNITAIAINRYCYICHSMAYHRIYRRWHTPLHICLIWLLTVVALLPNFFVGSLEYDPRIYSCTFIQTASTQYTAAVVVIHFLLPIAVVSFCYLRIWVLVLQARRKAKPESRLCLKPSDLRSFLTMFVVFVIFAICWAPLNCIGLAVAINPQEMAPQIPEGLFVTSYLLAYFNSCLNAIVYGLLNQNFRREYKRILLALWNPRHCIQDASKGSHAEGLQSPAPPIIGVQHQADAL

Rattus norvegicus = assay: Hypotensive effect against Phe-induced contraction in rat mesentric arteries assessed as relaxation effect […]; assay type: functional
[15] = molecular target: T2, Melatonin receptor type 1A; assay: Agonist activity at human MT1R stably expressed in HEK293 cells by FlexStation3 Bench-top MultiMode Microplate Reader; assay type: functional, cell-based
[16] = molecular target: T4, Melatonin receptor type 1B (Homo sapiens, UniProt P49286); assay: Agonist activity at human MT2R stably expressed in HEK293 cells by FlexStation3 Bench-top MultiMode Microplate Reader; assay type: functional, cell-based
T4 sequence (P49286 whole entry): T3 sequence (whole entry)

Acetylcholinesterase [17] = molecular target: T1, Acetylcholinesterase; assay: Inhibition of AChE (unknown origin) using acetylcholine as substrate by BioTek Synergy HT microplate reader method

T1 sequence (P22303 whole entry): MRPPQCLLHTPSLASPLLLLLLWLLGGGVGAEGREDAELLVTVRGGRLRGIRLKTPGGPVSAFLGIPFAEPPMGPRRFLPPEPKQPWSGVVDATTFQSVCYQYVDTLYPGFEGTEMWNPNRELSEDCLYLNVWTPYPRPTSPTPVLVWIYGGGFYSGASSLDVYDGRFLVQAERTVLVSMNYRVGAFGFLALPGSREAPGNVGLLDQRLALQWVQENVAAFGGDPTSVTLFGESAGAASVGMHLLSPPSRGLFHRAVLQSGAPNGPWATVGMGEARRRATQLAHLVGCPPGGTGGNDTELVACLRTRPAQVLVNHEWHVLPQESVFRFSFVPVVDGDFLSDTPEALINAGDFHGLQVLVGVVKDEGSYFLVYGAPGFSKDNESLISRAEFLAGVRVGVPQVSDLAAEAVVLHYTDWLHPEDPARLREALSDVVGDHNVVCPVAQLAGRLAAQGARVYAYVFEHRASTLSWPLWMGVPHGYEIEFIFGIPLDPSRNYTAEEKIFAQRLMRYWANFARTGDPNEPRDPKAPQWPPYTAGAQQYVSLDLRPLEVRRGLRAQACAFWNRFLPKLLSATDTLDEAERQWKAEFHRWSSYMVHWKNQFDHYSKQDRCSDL
T2 sequence (P48039 whole entry): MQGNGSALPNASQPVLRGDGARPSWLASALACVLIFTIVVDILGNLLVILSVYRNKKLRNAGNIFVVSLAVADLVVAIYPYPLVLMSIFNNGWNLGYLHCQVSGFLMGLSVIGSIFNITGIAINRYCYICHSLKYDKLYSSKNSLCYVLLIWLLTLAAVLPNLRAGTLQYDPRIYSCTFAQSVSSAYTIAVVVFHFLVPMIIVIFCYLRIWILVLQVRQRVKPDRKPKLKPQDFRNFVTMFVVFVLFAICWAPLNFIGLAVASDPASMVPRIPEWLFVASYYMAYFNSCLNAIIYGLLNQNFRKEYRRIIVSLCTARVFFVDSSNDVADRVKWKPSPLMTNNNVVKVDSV

pIC50 (RAW264.7): 5.83
Compound: C=C1CC[C@]2(C(=O)O)CC[C@]3(C)C(=CC[C@@H]4[C@@]5(C)CC[C@H](O)C(C)(C)[C@@H]5[C@H](O)C[C@]43C)[C@@H]2[C@]1(C)O

Compound: C=C[C@H]1COC(=O)C2=CN3CCc4c([nH]c5cccc(O[C@@H]6O[C@H](CO)[C@@H](O)[C@H](O)[C@H]6O)c45)[C@@H]3C[C@H]21
pIC50 (Acetylcholinesterase [1]): 4.68

Compound: COC(=O)C1=CO[C@@H](C)[C@H]2CN3CC[C@]4(C(=O)Nc5ccccc54)[C@@H]3CC12 (stereo partly specified)
Activity (Mus musculus [2]): 50% | Activity (Mus musculus [3]): 50% | Activity (Mus musculus [4]): 40% | Activity (Mus musculus [5]): 50% | Activity (Mus musculus [6]): 50%

pIC50 [7]: 4.31
Compound: COCC1=C(C)[C@H]2C3=CC[C@@H]4[C@@]5(C)CC[C@H](O)C(C)(C)[C@@H]5C(=O)C[C@@]4(C)[C@]3(C)CC[C@@]2(C(=O)O)CC1

Compound: C=C[C@@H]1C(C[C@@H]2NCCc3c2[nH]c2ccccc32)C(C(=O)OC)=CO[C@H]1O[C@@H]1O[C@H](CO)[C@@H](O)[C@H](O)[C@H]1O (stereo partly specified)
pIC50 [8]: 5.08

pIC50 [9]: 4.57
Compound: O=C1CC[C@H](Cc2ccc(O)c(O)c2)O1

pIC50 (RAW264.7): 5.15
Compound: C[C@H]1[C@H](C)CC[C@]2(C(=O)O)CC[C@]3(C(=O)/C=C/c4ccc(O)cc4)C(=CC[C@@H]4[C@@]5(C)CC[C@H](O)C(C)(C)[C@@H]5CC[C@]43C)[C@H]12

pIC50 [10]: 5.40
Compound: CO[C@H]1C=C2[C@@H]3C[C@H](C)CC[C@]3(C(=O)O)CC[C@@]2(C)[C@]2(C)CC[C@H]3C(C)(C)[C@@H](O)CC[C@]3(C)[C@@H]12

pIC50 [10]: 5.40
Compound: C[C@H]1[C@H](C)CC[C@]2(C(=O)O)CC[C@]3(C)C(=CC[C@@H]4[C@@]5(C)CC[C@H](O)C(C)(C)[C@@H]5[C@H](O)C[C@]43C)[C@H]12

pIC50 (PC-12 [11]): 4.59 | pIC50 (PC-12 [12]): 4.61
Compound: C=C[C@H]1[C@H](O[C@@H]2O[C@H](CO)[C@@H](O)[C@H](O)[C@H]2O)OC=C(C(=O)OC)[C@H]1C[C@@H]1N[C@H](C(=O)O)Cc2c1[nH]c1ccccc21

pIC50 [9]: 4.81
Compound: Cc1cc2c(cc1O)OC1(CC1)C(O)C2 (stereo unspecified)

Activity [13]: 79.6% | Activity [14]: 46.3%
Compound: C=C[C@H]1[C@H](O[C@@H]2O[C@H](CO)[C@@H](O)[C@H](O)[C@@H]2O[C@@H]2O[C@H](CO[C@@H]3O[C@H](CO)[C@@H](O)[C@H](O)[C@H]3O)[C@@H](O)[C@H](O)[C@H]2O)OC=C2C(=O)N3CCc4c([nH]c5cc(O)ccc45)[C@H]3C[C@H]21

pIC50 [9]: 4.76
Compound: Oc1cc(O)c2c(c1)O[C@H](c1ccc(O)c(O)c1)[C@@H](O)[C@@H]2c1c(O)cc(O)c2c1O[C@H](c1ccc(O)c(O)c1)[C@@H](O)C2

pIC50 [10]: 5.40 | pIC50 [7]: 4.80
Compound: C[C@H]1[C@H](C)CC[C@]2(C(=O)O)CC[C@]3(C)C(=CC[C@@H]4[C@@]5(C)CC[C@H](O)C(C)(C)[C@@H]5CC[C@]43C)[C@H]12 [URSOLIC ACID]

Compound: CC[C@H]1CN2CCc3c([nH]c4ccccc34)[C@H]2C[C@H]1/C(=C\OC)C(=O)OC
pIC50 (Rattus norvegicus): 6.74

pIC50 [10]: 5.40
Compound: CC1(C)CC[C@]2(C(=O)O)CC[C@]3(C)C(=CC[C@@H]4[C@@]5(C)CC[C@H](O)C(C)(C)[C@@H]5CC[C@]43C)[C@@H]2C1 [OLEANOLIC_ACID]

pEC50 [15]: 4.59 | pEC50 [16]: 4.33
Compound: Oc1cc(O)c2c(c1)O[C@H](c1ccc(O)c(O)c1)[C@@H](O)C2 [CIANIDANOL]

Compound: C/C=C1\CN2CCc3c([nH]c4ccccc34)[C@@H]2C[C@@H]1/C(=C\OC)C(=O)OC
pIC50 (Acetylcholinesterase [17]): 4.19
